# Source: patent publication US4753952A, “2-acyl-3-aminomethyl-1,2,3,4-tetrahydroquinolines” (Dr. Lo. Zambeletti S.p.A., priority 1985, dated 1988)
# Where a name gives a salt, the structure may show the parent alone. Read-outs that look alike come from different tables or passages of the source.
# Legend:
# Mouse tail flick = Mouse tail flick test; assay type: in vivo, mouse (male Charles River); conditions: s.c., 30 min after dosing, mice doubling the initial reaction time; for ED50: Mus musculus, sc, 0.5 h, read-out: IN VIVO TESTS - ED50, Mouse tail flick
# Method: (§1) Inhibition of contraction in electrically stimulated rabbit vas deferens indicate Kappa receptor agonism.
# Tail-flick test (Modified from the procedure published by D'Amour et al., J. Pharm. Exptl. Ther. 72, 74/1941)
# Male Charles River mice, average weight 26 g, are used. Selection is carried out before beginning of experiments: only mice whose reaction time is less than 8 sec are used. They are randomly distributed into groups of 10 and dosed with compounds under test, with positive and negative controls being included.
# Compounds under test are administered subcutaneously in isotonic saline in a volume of 20 ml.Kg^-1. 30 min later mice are placed again under heat source (Socrel apparatus) and reaction time is recorded.
# Analgesic activity of the test compound is expressed as the percent number of mice doubling the initial time within a group. [formula]
# [1] = molecular target: T1, k (Kappa) opioid receptor (Cavia porcellus, UniProt P41144); test: Radio receptor binding to k sites (tritiated Ethylketocyclazocine); parameters: species or system guinea pig
# T1 construct: fresh guinea pig brain homogenate; from tissue; host or cells: guinea pig whole brain without cerebellum, washed membrane homogenate
# Method: Radio receptor binding to μ and k sites is performed on fresh guinea pig brain homogenate prepared according to Kosterlitz.
# (§2) […] brain without cerebellum is homogenized in 50 mM, Tris-buffer (pH 7.4 at 0° C.) and centrifuged at 49,000×g×10 min. The pellet is then resuspended in the same buffer, incubated at 37° C. for 45 min. and centrifuged again.
# (§3) 1.9 ml of the final homogenate (1:100 in Tris-pH 7.4, 0° C.) is used for the binding assay.
# The binding of tritiated Ethylketocyclazocine to brain homogenate is measured in the presence of 100 nanomolar D-Ala-D-LeuEnkephalin (DADLE) and 100 nanomolar DAGO, added to saturate the δ and μ opioid receptors respectively.
# Final homogenate with solutions of the cold ligand and of the labelled ligand is incubated for 40 min at 25° C., filtered through Whatman GF/C glass filter discs and washed.
# The radioactivity bound to the filters is counted by liquid scintillation spectrophotometry.
# (§4) A concentration of radioligant near KD is used in the binding assays evaluating our compounds.
# μ receptor = molecular target: T2, μ receptor (Cavia porcellus, UniProt A0ACM8Q262); test: Radio receptor binding to μ sites (3H-DAGO); conditions: guinea pig brain homogenate without cerebellum, 25° C., 40 min, pH 7.4
# T2 construct: 3H-DAGO (DAMGO) displacement
# Method: Radio receptor binding to μ and k sites is performed on fresh guinea pig brain homogenate prepared according to Kosterlitz. (1981)
# as §2, §3
# Binding to μ sites (Magnan J., 1982):
# ^3 H [D-Ala^2, MePhe^4, Gly-ol^5 ] Enkephalin (^3 H-DAGO), an enkephalin analogue that binds selectively to μ receptor, is added to the biological substrate and incubated at 25° C. for 40 min., filtered through Whatman GF-C and washed with ice-cold Tris-buffer. The filters are then dried, solubilized in Filtercount and the radioactivity monitored. Non specific binding is determined in the presence of 10^-6 M Naloxone.
# For the calculation of the kinetic parameters of the binding of labelled and unlabelled ligands, the equilibrium dissociation constant (KD), and the inhibition constant (Ki) and the maximum number of binding sites (B max) are determined from saturation curves and competition experiments (Hill 1910; Scatchard 1949; Cheng and Prusoff 1973; Gillan et al. 1980).
# as §4
# [2] = tested on: Mouse p-phenylquinone writhing; test: Mouse p-phenylquinone writhing test; assay type: in vivo, mouse (male Charles River); conditions: p-phenylquinone 0.02% i.p. 20 min after dosing, animals completely protected in 8 min; for ED50: Mus musculus, sc, read-out: IN VIVO TESTS - ED50, Mouse p-phenylquinone writhing; for IN VIVO TESTS - ED50, Mouse p-phenylquinone writhing: s.c.
# Method: as §1
# Writhing test (According to Siegmund et al., Proc. Soc. Exptl. Biol. 95, 729/1957)
# Male Charles River mice, average weight 26 g, are randomly distributed into groups of 10 and are dosed subcutaneously with compounds under test, dissolved in isotonic saline (20 ml.Kg^-1). The experiments are carried out in the presence of positive and negative controls. 20 min after the mice are injected intraperitoneally with p-phenylquinone 0.02%, 10 ml.Kg^-1, maintained at 37° C. in a water bath. The mice are placed in a perspex compartmented observation box and observed for a period of 8 min after injection of p-phenylquinone. The dose-response curve is obtained by basing observation on the all or none response.
# T2 sequence (A0ACM8Q262 1-400): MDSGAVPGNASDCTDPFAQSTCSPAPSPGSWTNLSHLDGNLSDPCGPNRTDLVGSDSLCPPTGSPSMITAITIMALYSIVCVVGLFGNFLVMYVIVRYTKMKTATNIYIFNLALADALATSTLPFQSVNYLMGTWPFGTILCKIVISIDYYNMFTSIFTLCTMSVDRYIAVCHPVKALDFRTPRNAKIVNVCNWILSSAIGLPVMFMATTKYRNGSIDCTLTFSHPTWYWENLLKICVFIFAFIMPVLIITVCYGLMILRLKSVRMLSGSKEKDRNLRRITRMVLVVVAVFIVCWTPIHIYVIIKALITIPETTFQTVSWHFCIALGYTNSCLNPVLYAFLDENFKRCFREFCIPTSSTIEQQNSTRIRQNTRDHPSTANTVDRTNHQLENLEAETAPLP
# T1 sequence (P41144 whole entry): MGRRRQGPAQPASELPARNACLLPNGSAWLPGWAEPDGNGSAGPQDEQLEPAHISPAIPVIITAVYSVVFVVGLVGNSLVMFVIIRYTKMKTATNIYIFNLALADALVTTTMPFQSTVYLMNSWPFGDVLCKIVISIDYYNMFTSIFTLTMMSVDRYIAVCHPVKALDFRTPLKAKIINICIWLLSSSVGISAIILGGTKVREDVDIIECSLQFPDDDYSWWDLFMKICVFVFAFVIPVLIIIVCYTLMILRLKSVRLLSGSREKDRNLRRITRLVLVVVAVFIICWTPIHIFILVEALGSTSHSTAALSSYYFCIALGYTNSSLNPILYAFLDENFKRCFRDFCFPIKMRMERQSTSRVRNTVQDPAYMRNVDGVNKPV
SMILES,ED50 (Mouse tail flick) [mg/kg],Ki [1] [nM],Ki (μ receptor) [nM],ED50 [2] [mg/kg],"IN VIVO TESTS - ED50, Mouse tail flick (Mouse tail flick)","IN VIVO TESTS - ED50, Mouse p-phenylquinone writhing [2]","Ki ([1]; guinea pig brain homogenate without cerebellum, tritiated Ethylketocyclazocine with 100 nM DADLE and 100 nM DAGO, 25° C., 40 min, read-out: RECEPTOR BINDING - Ki, k) [nM]"
"O=C(Cc1ccc(Cl)c(Cl)c1)N1Cc2ccccc2CC1CN1CCCC1 (racemic) [Example 1, (R,S)-2-(3,4-dichlorophenyl)acetyl-3-(1-pyrrolidinyl)methyl-1,2,3,4-tetrahydroisoquinoline hydrochloride]",3.12,9.45,960,2.64,,,
"CN(C)CC1Cc2ccccc2CN1C(=O)Cc1ccc(Cl)c(Cl)c1 (racemic) [Example 4, (R,S)-2-(3,4-dichlorophenylacetyl)-3-dimethylaminomethyl-1,2,3,4-tetrahydroisoquinoline hydrochloride]",7.2,17.5,1360,3.76,,,
"O=C(Cc1ccc(Cl)c(Cl)c1)N1Cc2ccccc2C[C@@H]1CN1CCCC1 [Example 2, (R)-2-(3,4-dichlorophenyl)acetyl-3-(1-pyrrolidinyl)methyl-1-2,3,4-tetrahydroisoquinoline hydrochloride]",,> 1,1420,,N.E.,N.E.,
"O=C(Cc1ccc(Cl)c(Cl)c1)N1Cc2ccccc2C[C@H]1CN1CCCC1 [Example 3, (S)-2-(3,4-dichlorophenyl)acetyl-3-(1-pyrrolidinyl)methyl-1,2,3,4-tetrahydroisoquinoline hydrochloride]",1.58,8.03,764,1.43,,,
"CN(C)C[C@H]1Cc2ccccc2CN1C(=O)Cc1ccc(Cl)c(Cl)c1 [Example 5, (R)-2-(3,4-dichlorophenyl)acetyl-3-dimethylaminomethyl-1,2,3,4-tetrahydroisoquinoline hydrochloride]",,,2560,,N.E.,N.E.,637
"CN(C)C[C@@H]1Cc2ccccc2CN1C(=O)Cc1ccc(Cl)c(Cl)c1 [Example 6, (S)-2-(3,4-dichlorophenylacetyl)-3-dimethylaminomethyl-1,2,3,4-tetrahydroisoquinoline hydrochloride]",1.65,11,1080,2.05,,,
